Results from US9365499B2, “9-aminomethyl substituted tetracycline compounds” (KBP Biosciences Co., Ltd., priority 2011, dated 2016).
≈ marks a conversion by molar mass, not a printed value. Read-outs that look alike come from different tables or passages of the source.

What was measured:
[1] = test system: Methicillin-resistant Staphylococcus aureus (MRSA); experiment: antibacterial activity in vitro, agar dilution method; assay type: cell-based
Excerpt: (§1) The antibacterial spectrum and in vitro antibacterial activity of the compound of the present invention
(§2) Experimental method: the agar dilution method, with reference to Clinical And Laboratory Standards Institute. Methods for Dilution Antimicrobial Susceptibility Tests for Bacteria That Grow Aerobically; Approved Standard-Seventh Edition. CLSI Document M7-A7. Vol 26, no. 2, Wayne, Pa.: Clinical and Laboratory Standards Institute, 2006.
(§3) Wherein MIC represents the minimum inhibitory concentration, MIC90 represents the 90% inhibitory concentration.

Klebsiella pneumoniae = experiment: as above; assay type: cell-based
Excerpt: as §1, §2, §3

Acinetobacter baumannii = experiment: as above; assay type: cell-based
Excerpt: as §1, §2, §3

Escherichia coli = experiment: as above; assay type: cell-based
Excerpt: as §1, §2, §3

[2] = test system: Methicillin-resistant Staphycoccus epidermidis (MRSE); experiment: as above; assay type: cell-based; settings: Staphylococcus epidermidis
Excerpt: as §1, §2, §3

Streptococcus pyogenes = experiment: as above; assay type: cell-based; settings: Table 2
Excerpt: as §1, §2, §3

[3] = in vivo pharmacokinetics experiment in rats (Test Example 2); settings: male, SD, rat, plasma
Protocol: Test animals: male SD rats, weighing 230-250 g, purchased from Shanghai SLAC Laboratory Animals Co., Ltd., Certificate of Conformity: SCXK (SH) 2007-0005 22045; Six rats were tested for each compound.
Test substances: Compound 2 of the present invention, prepared in accordance with the method of Example 3; dissolved in physiological saline.
Internal standard substance: The acetonitrile solution of 50 ng/ml KBP-5747 was used as an internal standard solution in the measurement of Compound 2.
Administration of Compound 2 of the present invention: intravenous bolus injection (iv), dose: 5 mg/kg, administrating volume: 5 mL/kg; gavage (po), dose: 5 mg/kg, administrating volume: 5 mL/kg. Prior to administration help but water fasting for 12 hours, 4 hours after administration to food.
iv blood sampling time point: denoted by 0 min before administration, 5 min, 15 min, 30 min, 1 h, 2 h, 4 h, 8 h, 24 h, 30 h, 48 h after administration
po blood sampling time point: denoted by 0 min before administration, 5 min, 15 min, 30 min, 1 h, 2 h, 4 h, 8 h, 24 h, 30 h, 48 h after administration
Each time point to take around 150 μl whole blood, centrifugated at 2000×g at 4° C. for 5 minutes in a low-temperature high-speed centrifuge to separate plasma, the resulting plasma frozen was at −70° C. in a refrigerator.
Plasma samples analysis: 30 μl of plasma was taken and added 100 μl of internal standard solution, subjected to vortex at 14,000 rev/min for 5 minutes, then to centrifugation at 12,000 rpm/min for 5 minutes. The supernatant was taken and analyzed using LC-MS/MS.
Formula Absolute Bioavailability F%=[AUC]INF (po)×Dose(iv)/[AUC]INF (iv)×Dose(po)

Klebsiella oxytoca = experiment: antibacterial activity in vitro, agar dilution method; assay type: cell-based; settings: Table 3
Excerpt: as §1, §2, §3

in vivo = experiment: in vivo; design: species or system male SD rats; settings: male, SD, rat, 5 mg/kg
Protocol: Test animals: male SD rats, weighing 180-280 g, purchased from Beijing Vital River Laboratory Animal Technology Co., Ltd.; animal Certificate of Conformity: SCXK (Beijing) 2006-0009. Six rats were tested for each compound. the compounds of the present invention, prepared in accordance with the methods of above Examples, dissolved in physiological saline. tigecycline, dissolved in physiological saline. Administration of the compounds of the present invention: intravenous bolus injection (iv), dose: 5 mg/kg, administrating volume: 5 mL/kg; gavage (po), dose: 5 mg/kg, administrating volume: 5 mL/kg. Administration of tigecycline: gavage (po), dose: 10 mg/kg, administrating volume: 5 mL/kg. Prior to administration help but water fasting for 16 hours, 4 hours after administration to food. Compound 9: iv blood sampling time point: denoted by 0 min before administration, 5 min, 15 min, 30 min, 1 […] after administration; po blood sampling time point: denoted by 0 min before administration, 5 min, 15 min, 30 min, 1 […] after administration; Compound 20: iv blood sampling time point: 5 min, 15 min, 30 min, 1 […] after administration; po blood sampling time point: 10 min, 30 min, 1 […] after administration; Compound 23: iv blood sampling time point: denoted by 0 min before administration, 5 min, 15 min, 30 min, 1 […] after administration; po blood sampling time point: denoted by 0 min before administration, 5 min, 15 min, 30 min, 1 […] after administration; Tigecycline: iv blood sampling time point: 5 min, 15 min, 30 min, 1 h, 2 h, 4 h, 6 h, 8 h after administration; po blood sampling time point: 10 min, 30 min, 1 […] after administration. Each time point is taken around 100 μl whole blood and placed in a heparinized tube, centrifugated at 8000 rpm/min at 4° C. for 6 minutes in a low-temperature high-speed centrifuge to separate plasma, the resulting plasma was frozen at -80° C. refrigerator. Plasma samples analysis: 20 μl of plasma was taken and added 200 μl of internal standard solution, subjected to vortex for 3 minutes, then to centrifugation at 12,000 rpm/min for 5 minutes. 100 μl of supernatant was taken and analyzed using LC-MS/MS. Formula Absolute Bioavailability F%=[AUC](po)×Dose(iv)/[AUC](iv)×Dose(po)

[4] = Table 2, agar dilution, read-out: antibacterial activity MIC, Acinetbacter baumannii
[5] = Table 3, agar dilution, read-out: antibacterial activity MIC, Acinetobacter baumannii

Row | SMILES | MIC ([1]; Table 2, agar dilution) [µg/mL] | MIC (Klebsiella pneumoniae; Table 2) [µg/mL] | MIC (Acinetobacter baumannii; [4]) [µg/mL] | MIC (Escherichia coli; Table 2) [µg/mL] | MIC ([2]; Table 2) [µg/mL] | MIC (Streptococcus pyogenes) [µg/mL] | MIC ([1]; Table 3, agar dilution) [µg/mL] | MIC (Klebsiella pneumoniae; Table 3) [µg/mL] | MIC (Acinetobacter baumannii; [5]) [µg/mL] | MIC (Klebsiella oxytoca) [µg/mL] | MIC (Escherichia coli; Table 3) [µg/mL] | MIC ([2]; Table 3) [µg/mL] | AUC(0-t) (in vivo; iv) [ng·h/mL] | Vd (in vivo; iv) [L/kg] | clearance (in vivo; iv) [mL/min/kg] | half-life (in vivo; iv) [h] | AUC(0-t) (in vivo; po) [ng·h/mL] | Cmax (in vivo; po) [ng/mL] | Tmax (in vivo; po) [h] | bioavailability (in vivo; po) [%] | also measured
1 | CN(C)c1cc(CNC2CC(F)(F)C2)c(O)c2c1C[C@H]1C[C@H]3[C@H](N(C)C)C(O)=C(C(N)=O)C(=O)[C@@]3(O)C(O)=C1C2=O [Compound 2, (4S,4aS,5aR,12aS)-9-((3,3-difluorocyclobutylamino)methyl)-4,7-bis(dimethylamino)-3,10,12,12a-tetrahydroxy-1,1′-dioxo-1,4,4a,5,5a,6,11,12a-octahydrotetracene-2-carboxamide] | 0.5 (≈ 0.867 µM) | 4 (≈ 6.94 µM) | 0.5 (≈ 0.867 µM) | 1 (≈ 1.73 µM) | 0.25 (≈ 0.434 µM) | 0.125 (≈ 0.217 µM) |  |  |  |  |  |  |  |  |  |  |  |  |  |  | AUC(0-inf) ([3]; iv, 5 mg/kg): 2290 ng·h/mL; clearance ([3]; iv, 5 mg/kg): 37.2 mL/min/kg; half-life ([3]; iv, 5 mg/kg): 4.07 h; Vd ([3]; iv, 5 mg/kg, read-out: Vss): 5.12 L/kg; bioavailability ([3]; po 5 mg/kg vs iv 5 mg/kg, read-out: F % (absolute bioavailability)): 33.9%; AUC(0-inf) ([3]; po (gavage), 5 mg/kg): 777 ng·h/mL; Cmax ([3]; po (gavage), 5 mg/kg): 251 ng/mL; Tmax ([3]; po (gavage), 5 mg/kg): 1 h; half-life ([3]; po (gavage), 5 mg/kg): 2.32 h
2 | CN(C)c1cc(CNC2CC3(CC3)C2)c(O)c2c1C[C@H]1C[C@H]3[C@H](N(C)C)C(O)=C(C(N)=O)C(=O)[C@@]3(O)C(O)=C1C2=O [Compound 3, (4S,4aS,5aR,12aS)-9-((spiro[2.3]hexan-5-ylamino)methyl)-4,7-bis(dimethylamino)-3,10,12,12a-tetrahydroxy-1,1′-dioxo-1,4,4a,5,5a,6,11,12a-octahydrotetracene-2-carboxamide] | 0.5 (≈ 0.882 µM) | 2 (≈ 3.53 µM) | 4 (≈ 7.06 µM) | 1 (≈ 1.76 µM) | 0.5 (≈ 0.882 µM) | 0.06 (≈ 0.106 µM) |  |  |  |  |  |  |  |  |  |  |  |  |  |  | 
3 | CN(C)c1cc(CN2CC3(CCC3)C2)c(O)c2c1C[C@H]1C[C@H]3[C@H](N(C)C)C(O)=C(C(N)=O)C(=O)[C@@]3(O)C(O)=C1C2=O [Compound 9, (4S,4aS,5aR,12aS)-9-(2-azaspiro[3.3]heptan-2-ylmethyl)-4,7-bis(dimethylamino)-3,10,12,12a-tetrahydroxy-1,1′-dioxo-1,4,4a,5,5a,6,11,12a-octahydrotetracene-2-carboxamide] |  |  |  |  |  |  | 0.5 (≈ 0.882 µM) | 1 (≈ 1.76 µM) | 4 (≈ 7.06 µM) | 1 (≈ 1.76 µM) | 0.5 (≈ 0.882 µM) | 0.5 (≈ 0.882 µM) | 6070 | 4.65 | 13.3 | 5.85 | 216 | 35.6 | 1 | 3.56 | 

Continued, in another order:

Row | MIC ([1]; Table 2, agar dilution) [µg/mL] | MIC (Klebsiella pneumoniae; Table 2) [µg/mL] | MIC (Acinetobacter baumannii; [4]) [µg/mL] | MIC (Escherichia coli; Table 2) [µg/mL] | MIC ([2]; Table 2) [µg/mL] | MIC (Streptococcus pyogenes) [µg/mL] | MIC ([1]; Table 3, agar dilution) [µg/mL] | MIC (Klebsiella pneumoniae; Table 3) [µg/mL] | MIC (Acinetobacter baumannii; [5]) [µg/mL] | MIC (Klebsiella oxytoca) [µg/mL] | MIC (Escherichia coli; Table 3) [µg/mL] | MIC ([2]; Table 3) [µg/mL] | AUC(0-t) (in vivo; iv) [ng·h/mL] | Vd (in vivo; iv) [L/kg] | clearance (in vivo; iv) [mL/min/kg] | half-life (in vivo; iv) [h] | AUC(0-t) (in vivo; po) [ng·h/mL] | Cmax (in vivo; po) [ng/mL] | Tmax (in vivo; po) [h] | bioavailability (in vivo; po) [%] | SMILES | also measured
4 | 1 (≈ 1.69 µM) | 2 (≈ 3.39 µM) | 4 (≈ 6.77 µM) | 1 (≈ 1.69 µM) | 0.5 (≈ 0.847 µM) | 0.125 (≈ 0.212 µM) |  |  |  |  |  |  |  |  |  |  |  |  |  |  | CN(C)c1cc(CNCC2CC(F)(F)C2)c(O)c2c1C[C@H]1C[C@H]3[C@H](N(C)C)C(O)=C(C(N)=O)C(=O)[C@@]3(O)C(O)=C1C2=O [Compound 10, (4S,4aS,5aR,12aS)-9-(((3,3-difluorocyclobutyl)methylamino)methyl)-4,7-bis(dimethylamino)-3,10,12,12a-tetrahydroxy-1,11-dioxo-1,4,4a,5,5a,6,11,12a-octahydrotetracene-2-carboxamide] | 
5 |  |  |  |  |  |  | 0.5 (≈ 0.861 µM) | 2 (≈ 3.44 µM) | 1 (≈ 1.72 µM) | 1 (≈ 1.72 µM) | 0.5 (≈ 0.861 µM) | 1 (≈ 1.72 µM) | 11600 | 2.22 | 7.33 | 4.98 | 605 | 116 | 2 | 5.22 | CN(C)c1cc(CN2CCC3(CC2)CC3)c(O)c2c1C[C@H]1C[C@H]3[C@H](N(C)C)C(O)=C(C(N)=O)C(=O)[C@@]3(O)C(O)=C1C2=O [Compound 20, (4S,4aS,5aR,12aS)-9-(6-azaspiro[2.5]octan-6-ylmethyl)-4,7-bis(dimethylamino)-3,10,12,12a-tetrahydroxy-1,1′-dioxo-1,4,4a,5,5a,6,11,12a-octahydrotetracene-2-carboxamide] | 
